# Test results reported in patent EP0326640B1, “(1R,5S,6S)-2-substituted thio-6 (R)-1-hydroxyethyl -1-methyl-carbapenem - carboxylic acid derivatives” (LEDERLE (JAPAN) LTD., priority 1987, dated 1989).
# Key:
# [1] = test system: Proteus morganii GN 5407; experiment: Antibacterial activity against clinically isolated β-lactamase (cephalosporinase) producing strains (MIC); assay type: cell-based; details: Morganella morganii, GN5407, cephalosporinase producing strain, SDA, 18 to 20 hours
# Procedure: (§1) The antibacterial activities against clinically isolated β-lactamase producing strains were tested by the agar plate dilution method in accordance with the standard method of The Japanese Chemotherapy Society [Chemotherapy, Vol. 29, 76-79 (1981)]. A solution of a cephalosporinase producing strain stored by Episome Research Institute, prepared by incubating the strain in a sensitivity test broth (STB; product of Nissui K. K.) for 18 hours, was diluted with a fresh STB solution so that the solution contained 10⁶ cells per milliliter. The diluted solution was then inoculated as spots in a microplanter on a sensitivity disk agar-N (SDA; product of Nissui K. K.) containing a test compound. The disk agar was then incubated for 18 to 20 hours. The minimum inhibitory concentration was determined as a minimum concentration in which the test microorganism no longer grew after a 18 to 20-hour incubation.
# [2] = test system: Citrobactor freundii GN 346; experiment: as above; assay type: cell-based; details: cephalosporinase producing strain, SDA, 18 to 20 hours
# Procedure: as §1
# [3] = test system: Klebsiella oxytoca GN 10650; experiment: as above; assay type: cell-based; details: Klebsiella oxytoca GN 10650; cephalosporinase producing strain, SDA, 18 to 20 hours
# Procedure: as §1
# [4] = test system: Escherichia coli No. 1501; experiment: as above; assay type: cell-based; details: cephalosporinase producing strain, SDA, 18 to 20 hours
# Procedure: as §1
# [5] = test system: Serratia marcescens L-65; experiment: as above; assay type: cell-based; details: Serratia marcescens L-65; cephalosporinase producing strain, SDA, 18 to 20 hours
# Procedure: as §1
# [6] = test system: Pseudomonas cepacia GN 11164; experiment: as above; assay type: cell-based; details: cephalosporinase producing strain, SDA, 18 to 20 hours
# Procedure: as §1
# [7] = test system: Providencia rettgeri GN 4430; experiment: as above; assay type: cell-based; details: cephalosporinase producing strain, SDA, 18 to 20 hours
# Procedure: as §1
# [8] = test system: Enterobacter cloacae GN 7467; experiment: as above; assay type: cell-based; details: Enterobacter cloacae, GN7467, Enterobacter cloacae GN 7467; cephalosporinase producing strain, SDA, 18 to 20 hours
# Procedure: as §1
# [9] = test system: Serratia marcescens L-82; experiment: as above; assay type: cell-based; details: cephalosporinase producing strain, SDA, 18 to 20 hours
# Procedure: as §1
# [10] = test system: Escherichia coli GN 5482; experiment: as above; assay type: cell-based; details: cephalosporinase producing strain, SDA, 18 to 20 hours
# Procedure: as §1
# [11] = test system: Pseudomonas aeruginosa GN 10367; experiment: as above; assay type: cell-based; details: GN10367; Pseudomonas aeruginosa GN 10367; cephalosporinase producing strain, SDA, 18 to 20 hours; read-out: MIC
# Procedure: as §1
# [12] = test system: Proteus morganii GN 5307; experiment: as above; assay type: cell-based; details: Proteus morganii GN 5307; cephalosporinase producing strain, SDA, 18 to 20 hours
# Procedure: as §1
# [13] = test system: Proteus morganii GN 5375; experiment: as above; assay type: cell-based; details: Morganella morganii, GN5375, cephalosporinase producing strain, SDA, 18 to 20 hours
# Procedure: as §1
# [14] = test system: Providencia rettgeri GN 5284; experiment: as above; assay type: cell-based; details: cephalosporinase producing strain, SDA, 18 to 20 hours
# Procedure: as §1
# [15] = test system: Pseudomonas aeruginosa GN 10362; experiment: as above; assay type: cell-based; details: cephalosporinase producing strain, SDA, 18 to 20 hours
# Procedure: as §1
# [16] = test system: Enterobacter cloacae GN 5797; experiment: as above; assay type: cell-based; details: cephalosporinase producing strain, SDA, 18 to 20 hours
# Procedure: as §1
# [17] = test system: Serratia marcescens GN 10857; experiment: as above; assay type: cell-based; details: Serratia marcescens GN 10857; cephalosporinase producing strain, SDA, 18 to 20 hours
# Procedure: as §1
# [18] = test system: Proteus vulgaris GN 76; experiment: as above; assay type: cell-based; details: Proteus vulgaris GN 76; cephalosporinase producing strain, SDA, 18 to 20 hours
# Procedure: as §1
# [19] = test system: Citrobactor freundii GN 7391; experiment: as above; assay type: cell-based; details: cephalosporinase producing strain, SDA, 18 to 20 hours
# Procedure: as §1
# [20] = test system: Escherichia coli No. 96; experiment: as above; assay type: cell-based; details: cephalosporinase producing strain, SDA, 18 to 20 hours
# Procedure: as §1
# [21] = test system: Pseudomonas aeruginosa GN 918; experiment: as above; assay type: cell-based; details: Pseudomonas aeruginosa, GN918, Pseudomonas aeruginosa GN 918; cephalosporinase producing strain, SDA, 18 to 20 hours
# Procedure: as §1
# [22] = test system: Proteus vulgaris GN 4413; experiment: as above; assay type: cell-based; details: Proteus vulgaris GN 4413; cephalosporinase producing strain, SDA, 18 to 20 hours
# Procedure: as §1
# [23] = test system: Enterobacter cloacae GN 7471; experiment: as above; assay type: cell-based; details: cephalosporinase producing strain, SDA, 18 to 20 hours
# Procedure: as §1
# [24] = test system: Providencia rettgeri GN 4762; experiment: as above; assay type: cell-based; details: Providencia rettgeri GN 4762; cephalosporinase producing strain, SDA, 18 to 20 hours
# Procedure: as §1
# [25] = test system: Proteus vulgaris GN 7919; experiment: as above; assay type: cell-based; details: Proteus vulgaris GN 7919; cephalosporinase producing strain, SDA, 18 to 20 hours
# Procedure: as §1
# [26] = test system: male mice of CrjCD(SD) strain; experiment: Toxicity, intravenous administration to mice, observation for one week; assay type: in vivo; details: 500 mg/kg administered intravenously; group of 10 male mice
# Procedure: Toxicological studies were carried out using a group of 10 male mice of CrjCD(SD) strain weighing from 20 to 23 grams. A solution containing the crystalline carbapenem compound (20) of the present invention obtained by Example 11 was administered intravenously to the mice and subjected to observations for one week.
# [27] = test system: Salmonella enteritidis G14; experiment: Antibacterial test, agar plate dilution method (MIC), standard strains; assay type: cell-based; details: Salmonella enterica, MH agar, 37°C, 18 hours, read-out: MIC
# Procedure: (§2) The antibacterial activities were tested by an agar plate dilution method in accordance with the standard method of The Japanese Chemotherapy Society [Chemotherapy, Vol. 29, 76-79 (1981)].
# (§3) A Mueller-Hinton (MH) agar liquid medium of a test microorganism was cultured overnight at 37°C and the resultant culture medium was diluted with a buffered saline gelatin (BSG) solution to contain approximately 10⁶ cells of the test microorganisms per milliliter, and then the diluted solution was inoculated with a microplanter at the rate of approximately 5 microliters on a MH agar medium containing a test compound. This medium was then incubated at 37°C for 18 hours. The minimum inhibitory concentration (MIC) is determined as a minimum concentration in which no test microorganism could grow. It is noted here that the test organisms used were all standard strains.
# [28] = test system: Morganella morganii IFO3848; experiment: as above; assay type: cell-based; details: MH agar, 37°C, 18 hours
# Procedure: as §2, §3
# [29] = test system: Providencia rettgeri IFO 3850; experiment: as above; assay type: cell-based; details: MH agar, 37°C, 18 hours
# Procedure: as §2, §3
# [30] = test system: Salmonella schottmuelleri 8006; experiment: as above; assay type: cell-based; details: MH agar, 37°C, 18 hours
# Procedure: as §2, §3
# [31] = test system: Pseudomanas aeruginosa NCTC 10940; experiment: as above; assay type: cell-based; details: MH agar, 37°C, 18 hours
# Procedure: as §2, §3
# [32] = test system: Serratia marcescens IAM1184; experiment: as above; assay type: cell-based; details: MH agar, 37°C, 18 hours
# Procedure: as §2, §3
# [33] = test system: Proteus vulgaris HX-19; experiment: as above; assay type: cell-based; details: Proteus vulgaris HX-19; MH agar, 37°C, 18 hours
# Procedure: as §2, §3
# [34] = test system: Pseudomonas aeruginosa IFO 3445; experiment: as above; assay type: cell-based; details: MH agar, 37°C, 18 hours
# Procedure: as §2, §3
# [35] = test system: Salmonella typhi 901; experiment: as above; assay type: cell-based; details: MH agar, 37°C, 18 hours
# Procedure: as §2, §3
# [36] = test system: Proteus vulgaris OX-19; experiment: as above; assay type: cell-based; details: Proteus vulgaris OX-19; MH agar, 37°C, 18 hours
# Procedure: as §2, §3
# [37] = test system: Proteus mirabilis IFO3849; experiment: as above; assay type: cell-based; details: Proteus mirabilis IFO3849; MH agar, 37°C, 18 hours
# Procedure: as §2, §3
# [38] = test system: Salmonella paratyphi 1015; experiment: as above; assay type: cell-based; details: MH agar, 37°C, 18 hours
# Procedure: as §2, §3
# [39] = test system: P. aeruginosa resistant strains; experiment: Sensitivity test against clinical isolates, agar plate dilution method; assay type: cell-based
# Procedure: The test procedures were based on the agar plate dilution method in accordance with the standard method of The Japanese Chemotherapy Society. The minimum inhibitory concentration (MIC) was determined in substantially the same manner as the test procedures II above using the 54 strains of P. aeruginosa having an anti-Pseudomonas resistance.
compound,measurement,setting,value
"C[C@@H](O)[C@H]1C(=O)N2C(C(=O)[O-])=C(SCc3cs[n+](C)n3)[C@H](C)[C@H]12 [Crystalline Compd. (20), (1R,5S,6S)-2-[(2-methyl-1,2,3-thiadiazolium-4-yl)methyl]thio-6-[(R)-1-hydroxyethyl]-1-methyl-carbapenem-3-carboxylate]",MIC,[1],1.56 mg/L
same,MIC,[2],0.78 mg/L
same,MIC,[3],0.2 mg/L
same,MIC,[4],0.05 mg/L
same,MIC,[5],0.39 mg/L
same,MIC,[6],0.39 mg/L
same,MIC,[7],0.39 mg/L
same,MIC,[8],1.56 mg/L
same,MIC,[9],0.2 mg/L
same,MIC,[10],0.05 mg/L
same,MIC,[11],3.13 mg/L
same,MIC,[12],0.78 mg/L
same,MIC,[13],1.56 mg/L
same,MIC,[14],0.39 mg/L
same,MIC,[15],0.78 mg/L
same,MIC,[16],0.1 mg/L
same,MIC,[17],3.13 mg/L
same,MIC,[18],3.13 mg/L
same,MIC,[19],0.78 mg/L
same,MIC,[20],0.05 mg/L
same,MIC,[21],1.56 mg/L
same,MIC,[22],3.13 mg/L
same,MIC,[23],0.1 mg/L
same,MIC,[24],0.2 mg/L
same,MIC,[25],0.78 mg/L
same,"toxicity, observations for one week",[26],alive without any abnormal observations
same,MIC,[27],0.78 mg/L
same,MIC,[28],0.2 mg/L
same,MIC,[29],0.025 mg/L
same,MIC,[30],0.39 mg/L
same,MIC,[31],0.2 mg/L
same,MIC,[32],0.78 mg/L
same,MIC,[33],1.56 mg/L
same,MIC,[34],0.39 mg/L
same,MIC,[35],0.013 mg/L
same,MIC,[36],1.56 mg/L
same,MIC,[37],3.13 mg/L
same,MIC,[38],1.56 mg/L
same,concentration to inhibit the growth of all the test microorganisms,[39],6.25 µg/mL
same,percent of strains inhibited at 3.13 µg/mL,"[39]; Pseudomonas aeruginosa, read-out: test microorganisms whose growth is inhibited",~99%
